According to publication PMC4382465 (The Journal of antibiotics, 2014):
≈ marks a conversion by molar mass, not a printed value.

What was measured:
[1] = system: M. tuberculosis H37Rv RFPr; assay: MIC, broth dilution; type: cell-based; settings: Mycobacterium tuberculosis
[2] = system: M. tuberculosis H37Rv INHr; assay: MIC, broth dilution; type: cell-based; settings: Mycobacterium tuberculosis

CO[C@H]1/C=C/O[C@@]2(C)Oc3c(C)c(O)c4c(O)c(c(/C=N/N5CCN(C)CC5)c(O)c4c3C2=O)NC(=O)/C(C)=C\C=C\[C@H](C)[C@H](O)[C@@H](C)[C@@H](O)[C@@H](C)[C@H](OC(C)=O)[C@@H]1C [Rifampicin (RFP), Rifampicin]
MIC [1]: > 4 µg/mL

COC1C(C(OC2OC(C(=O)NC3CCCCNC3=O)=CC(O)C2O)C(N)=O)OC(n2ccc(=O)[nH]c2=O)C1OC (stereo not drawn) [UT-01320 (3), 6-{Carbamoyl-[5-(2,4-dioxo-3,4-dihydro-2H-pyrimidin-1-yl)-3,4-dimethoxy-tetrahydro-furan-2-yl]-methoxy}-4,5-dihydroxy-5,6-dihydro-4H-pyran-2-carboxylic acid (2-oxo-azepan-3-yl)-amide]
MIC [2]: 2.5 µg/mL (≈ 4.28 µM)
MIC [1]: 2.45 µg/mL (≈ 4.2 µM)
